Read-outs that look alike come from different tables or passages of the source.
Assays:
Burkholderia gladioli = format: cell-based
Burkholderia ambifaria = format: cell-based
Burkholderia multivorans = format: cell-based
Burkholderia mallei = format: cell-based
Burkholderia dolosa = format: cell-based
Burkholderia cenocepacia = format: cell-based
[1] = tested on: Burkholderia pseudomallei; format: cell-based
[2] = white crystalline powder; cited from earlier work
[3] = tested on: Burkholderia vietnamiensis; format: cell-based
Burkholderia pyrrocinia = format: cell-based
Burkholderia stabilis = format: cell-based
Pseudomonas aeruginosa = conditions: all three groups of patients; day 10 of therapy
Burkholderia anthina = format: cell-based
Burkholderia cepacia [4] = format: cell-based
Burkholderia cepacia [5] = conditions: 0.02% solution
[6] = tested on: bacteria of the Burkholderia genus; format: cell-based; conditions: all species of bacteria of the Burkholderia genus

With `CC1CCC(C(C)C)C(OC(=O)C[N+](C)(C)CCCCCCCCCC[N+](C)(C)CC(=O)OC2CC(C)CCC2C(C)C)C1` (stereo not drawn) [decamethoxine, 1,10-decamethylene-bis(N,N-dimethyl-menthoxycarbonylmethyl)ammonium dichloride] as the compound, how does the activity (Burkholderia gladioli; Concentration 0,2%) read?
The activity was “+++”.

What about the activity (Burkholderia gladioli; Concentration 0.02%) of the same compound?
The activity was “+”.

What about the activity (Burkholderia gladioli; Concentration 0.05%) of the same compound?
Its activity is “++”.

And the activity (Burkholderia gladioli; Concentration 0.1%)?
Its activity is “+++”.

And the activity (Burkholderia ambifaria; Concentration 0,2%)?
The activity was “+++”.

What about the activity (Burkholderia ambifaria; Concentration 0.02%) of the same compound?
Its activity is “+”.

And the activity (Burkholderia ambifaria; Concentration 0.05%)?
Its activity is “++”.

What about the activity (Burkholderia ambifaria; Concentration 0.1%) of the same compound?
The activity was “+++”.

And the activity (Burkholderia multivorans; Concentration 0,2%)?
Its activity is “+++”.

What about the activity (Burkholderia multivorans; Concentration 0.02%) of the same compound?
The activity was “+”.

And the activity (Burkholderia multivorans; Concentration 0.05%)?
The activity was “++”.

What about the activity (Burkholderia multivorans; Concentration 0.1%) of the same compound?
Its activity is “+++”.

What about the activity (Burkholderia mallei; Concentration 0,2%) of the same compound?
The activity was “+++”.

And the activity (Burkholderia mallei; Concentration 0.02%)?
The activity was “+”.

What about the activity (Burkholderia mallei; Concentration 0.05%) of the same compound?
The activity was “++”.

And the activity (Burkholderia mallei; Concentration 0.1%)?
Its activity is “+++”.

And the activity (Burkholderia dolosa; Concentration 0,2%)?
The activity was “+++”.

What about the activity (Burkholderia dolosa; Concentration 0.02%) of the same compound?
Its activity is “+”.

What about the activity (Burkholderia dolosa; Concentration 0.05%) of the same compound?
The activity was “++”.

And the activity (Burkholderia dolosa; Concentration 0.1%)?
The activity was “+++”.

And the activity (Burkholderia cenocepacia; Concentration 0,2%)?
Its activity is “+++”.

And the activity (Burkholderia cenocepacia; Concentration 0.02%)?
Its activity is “+”.

And the activity (Burkholderia cenocepacia; Concentration 0.05%)?
The activity was “++”.

What about the activity (Burkholderia cenocepacia; Concentration 0.1%) of the same compound?
Its activity is “+++”.

What about the activity ([1]; Concentration 0,2%) of the same compound?
The activity was “+++”.

What about the activity ([1]; Concentration 0.02%) of the same compound?
Its activity is “+”.

And the activity ([1]; Concentration 0.05%)?
The activity was “++”.

What about the activity ([1]; Concentration 0.1%) of the same compound?
Its activity is “+++”.

And the solubility in water [2]?
Its solubility in water is “readily soluble in water”.

What about the activity ([3]; Concentration 0,2%) of the same compound?
The activity was “+++”.

And the activity ([3]; Concentration 0.02%)?
The activity was “+”.

And the activity ([3]; Concentration 0.05%)?
The activity was “++”.

And the activity ([3]; Concentration 0.1%)?
Its activity is “+++”.

And the activity (Burkholderia pyrrocinia; Concentration 0,2%)?
Its activity is “+++”.

What about the activity (Burkholderia pyrrocinia; Concentration 0.02%) of the same compound?
Its activity is “+”.

What about the activity (Burkholderia pyrrocinia; Concentration 0.05%) of the same compound?
The activity was “++”.

And the activity (Burkholderia pyrrocinia; Concentration 0.1%)?
Its activity is “+++”.

What about the activity (Burkholderia stabilis; Concentration 0,2%) of the same compound?
The activity was “+++”.

What about the activity (Burkholderia stabilis; Concentration 0.02%) of the same compound?
Its activity is “+”.

What about the activity (Burkholderia stabilis; Concentration 0.05%) of the same compound?
The activity was “++”.

What about the activity (Burkholderia stabilis; Concentration 0.1%) of the same compound?
Its activity is “+++”.

And the “clinical outcome (clinical, laboratory and functional indices)” value (Pseudomonas aeruginosa)?
The value was “the patients were cured”.

What about the activity (Burkholderia anthina; Concentration 0,2%) of the same compound?
Its activity is “+++”.

What about the activity (Burkholderia anthina; Concentration 0.02%) of the same compound?
The activity was “+”.

What about the activity (Burkholderia anthina; Concentration 0.05%) of the same compound?
Its activity is “++”.

And the activity (Burkholderia anthina; Concentration 0.1%)?
Its activity is “+++”.

And the activity (Burkholderia cepacia [4]; Concentration 0,2%)?
The activity was “+++”.

And the activity (Burkholderia cepacia [4]; Concentration 0.02%)?
Its activity is “+”.

And the activity (Burkholderia cepacia [4]; Concentration 0.05%)?
The activity was “++”.

And the activity (Burkholderia cepacia [4]; Concentration 0.1%)?
The activity was “+++”.

And the Mean therapy time (Burkholderia cepacia [5]; ultrasonic inhalations)?
The Mean therapy time was 7 days.

And the “negative side effects making withdrawal necessary” value (Burkholderia cepacia [5]; ultrasonic inhalations)?
Its value is “No patients had negative side effects”.

And the “patients with positive effect after decamethoxine therapy” value (Burkholderia cepacia [5]; ultrasonic inhalations)?
Its value is 41%.

What about the “patients with body temperature normalized” value (Burkholderia cepacia [5]; ultrasonic inhalations 5-20 ml 1-2 times daily, days 3-5) of the same compound?
Its value is 75%.

And the “tolerance to the therapy” value (Burkholderia cepacia [5]; ultrasonic inhalations, all patients)?
The value was “Good tolerance”.

What about the “patients with persistent cough” value (Burkholderia cepacia [5]; ultrasonic inhalations, days 3-5, character changed from "strong" to "moderate" or "weak") of the same compound?
Its value is 75%.

What about the “patients in whom dyspnea persisted” value (Burkholderia cepacia [5]; ultrasonic inhalations, days 3-5, characterized as "insignificant") of the same compound?
The value was 30%.

What about the “patients complaining of moderate cough” value (Burkholderia cepacia [5]; ultrasonic inhalations, days 7-10) of the same compound?
The value was 14%.

And the “cases in which fine moist rales were heard” value (Burkholderia cepacia [5]; ultrasonic inhalations, physical examination)?
Its value is 43%.

And the bactericidal activity [6]?
Its bactericidal activity is “exhibits bactericidal activity”.

Which activity (Burkholderia gladioli; Concentration 0,2%) does the source give for `N=C(NCCCCCCNC(=N)NC(=N)Nc1ccc(Cl)cc1)NC(=N)Nc1ccc(Cl)cc1` [chlorhexidine bigluconate] here?
The activity was “++”.

What about the activity (Burkholderia gladioli; Concentration 0.02%) of the same compound?
Its activity is “+”.

What about the activity (Burkholderia gladioli; Concentration 0.05%) of the same compound?
The activity was “+”.

And the activity (Burkholderia gladioli; Concentration 0.1%)?
The activity was “+”.

And the activity (Burkholderia ambifaria; Concentration 0,2%)?
Its activity is “+”.

What about the activity (Burkholderia ambifaria; Concentration 0.02%) of the same compound?
The activity was “-”.

What about the activity (Burkholderia ambifaria; Concentration 0.05%) of the same compound?
The activity was “-”.

What about the activity (Burkholderia ambifaria; Concentration 0.1%) of the same compound?
The activity was “+”.

And the activity (Burkholderia multivorans; Concentration 0,2%)?
Its activity is “++”.

What about the activity (Burkholderia multivorans; Concentration 0.02%) of the same compound?
The activity was “+”.

And the activity (Burkholderia multivorans; Concentration 0.05%)?
The activity was “+”.

What about the activity (Burkholderia multivorans; Concentration 0.1%) of the same compound?
Its activity is “++”.

And the activity (Burkholderia mallei; Concentration 0,2%)?
The activity was “+”.

And the activity (Burkholderia mallei; Concentration 0.02%)?
The activity was “-”.

What about the activity (Burkholderia mallei; Concentration 0.05%) of the same compound?
The activity was “-”.

What about the activity (Burkholderia mallei; Concentration 0.1%) of the same compound?
Its activity is “+”.

And the activity (Burkholderia dolosa; Concentration 0,2%)?
The activity was “++”.

What about the activity (Burkholderia dolosa; Concentration 0.02%) of the same compound?
Its activity is “+”.

What about the activity (Burkholderia dolosa; Concentration 0.05%) of the same compound?
Its activity is “+”.

What about the activity (Burkholderia dolosa; Concentration 0.1%) of the same compound?
The activity was “++”.

And the activity (Burkholderia cenocepacia; Concentration 0,2%)?
Its activity is “+”.

And the activity (Burkholderia cenocepacia; Concentration 0.02%)?
Its activity is “+”.

And the activity (Burkholderia cenocepacia; Concentration 0.05%)?
Its activity is “+”.

And the activity (Burkholderia cenocepacia; Concentration 0.1%)?
The activity was “+”.

What about the activity ([1]; Concentration 0,2%) of the same compound?
The activity was “+”.

And the activity ([1]; Concentration 0.02%)?
Its activity is “-”.

And the activity ([1]; Concentration 0.05%)?
Its activity is “-”.

And the activity ([1]; Concentration 0.1%)?
The activity was “+”.

What about the activity ([3]; Concentration 0,2%) of the same compound?
The activity was “+”.

And the activity ([3]; Concentration 0.02%)?
The activity was “-”.

And the activity ([3]; Concentration 0.05%)?
Its activity is “+”.

What about the activity ([3]; Concentration 0.1%) of the same compound?
Its activity is “+”.

And the activity (Burkholderia pyrrocinia; Concentration 0,2%)?
The activity was “+”.

What about the activity (Burkholderia pyrrocinia; Concentration 0.02%) of the same compound?
The activity was “-”.

What about the activity (Burkholderia pyrrocinia; Concentration 0.05%) of the same compound?
The activity was “-”.

And the activity (Burkholderia pyrrocinia; Concentration 0.1%)?
The activity was “+”.

And the activity (Burkholderia stabilis; Concentration 0,2%)?
The activity was “+”.

What about the activity (Burkholderia stabilis; Concentration 0.02%) of the same compound?
Its activity is “+”.

And the activity (Burkholderia stabilis; Concentration 0.05%)?
The activity was “+”.

What about the activity (Burkholderia stabilis; Concentration 0.1%) of the same compound?
Its activity is “+”.

And the activity (Burkholderia anthina; Concentration 0,2%)?
The activity was “+”.

And the activity (Burkholderia anthina; Concentration 0.02%)?
Its activity is “-”.

And the activity (Burkholderia anthina; Concentration 0.05%)?
The activity was “-”.

What about the activity (Burkholderia anthina; Concentration 0.1%) of the same compound?
Its activity is “+”.

What about the activity (Burkholderia cepacia [4]; Concentration 0,2%) of the same compound?
The activity was “+”.

What about the activity (Burkholderia cepacia [4]; Concentration 0.02%) of the same compound?
Its activity is “-”.

What about the activity (Burkholderia cepacia [4]; Concentration 0.05%) of the same compound?
Its activity is “-”.

And the activity (Burkholderia cepacia [4]; Concentration 0.1%)?
Its activity is “+”.

From EP3138561A1 (priority 2014, dated 2015)
